From EP0421935B1, “Insect neuropeptides” (Novartis AG, priority 1989, dated 1999)
Bridge positions count the residues as written; N and C are the ends. Square brackets hold non-standard residues; d marks the D form. Peptide text beside a SMILES is read from it. pGlu = O=C1CC[C@@H](C(=O)O)N1

System: corpora allata which have been surgically removed from newly molted 5 stadium Manduca sexta larvae
Experiment: in vitro JH biosynthesis assay (rate of [14C]JH biosynthesis by excised CC/CA complex)
Type: cell-based
Method: The biological activity of native LAS and LASA's is tested in an in vitro JH-biosynthesis assay using newly molted 5th stadium Manduca sexta larval CC/CA complex. The biological activity of each of the LAS and LASA preparations made according to the following examples is assayed according to a procedure essentially as described (except for media employed) by Pratt and Tobe, 1974 Life Sci vl4:575-586, which is incorporated by reference. This procedure measures the rate of biosynthesis of Juvenile Hormone (JH) by the corpora allata which have been surgically removed from newly molted 5 stadium Manduca sexta larvae. One corpus cardiacum-corpus allatum complex is maintained in 100 µl of TC-199 medium (components of which are shown below) and Hank's salts, and is shaken using a mechanical shaker. The sample to be tested for LAS-like activity is dried and dissolved in TC-199 medium. Then an equal volume of TC-199 medium containing [^14C] methionine is added, and allowed to incubate for 4 hours. […] is extracted from the medium using iso-octane and the extract is assayed by liquid scintillation counting. The rate of biosynthesis by glands exposed to the sample is compared to the rate observed for control glands. The presence of LAS or LASA causes a decrease in the rate of biosynthesis.

Structure (SMILES)	level of activity (amidated carboxy terminus compared with Native LAS with free carboxy terminus, the test is not given)	allatostatin activity in bioassay (crude oxidized synthetic peptide, before reversed phase LC purification)
CC[C@H](C)[C@@H]1NC(=O)[C@@H]2CCCN2C(=O)[C@H](CC(N)=O)NC(=O)[C@H](Cc2ccccc2)NC(=O)[C@H](Cc2ccc(O)cc2)NC(=O)[C@@H](NC(=O)[C@H](CCC(N)=O)NC(=O)[C@H](CCCNC(=N)N)NC(=O)[C@H](Cc2ccccc2)NC(=O)[C@H](CCCNC(=N)N)NC(=O)[C@@H](NC(=O)[C@@H]2CCC(=O)N2)C(C)C)CSSC[C@@H](C(=O)N[C@@H](Cc2ccccc2)C(N)=O)NC(=O)[C@H](CO)NC1=O [amidated form] ([pGlu]VRFRQCYFNPISCF-NH2; disulfide 7-14)	same level of activity	–
CC[C@H](C)[C@@H]1NC(=O)[C@@H]2CCCN2C(=O)[C@H](CC(N)=O)NC(=O)[C@H](Cc2ccccc2)NC(=O)[C@H](Cc2ccc(O)cc2)NC(=O)[C@@H](NC(=O)[C@H](CCC(N)=O)NC(=O)[C@H](CCCNC(=N)N)NC(=O)[C@H](Cc2ccccc2)NC(=O)[C@H](CCCNC(=N)N)NC(=O)[C@@H](NC(=O)[C@@H]2CCC(=O)N2)C(C)C)CSSC[C@@H](C(=O)N[C@@H](Cc2ccccc2)C(=O)O)NC(=O)[C@H](CO)NC1=O [LAS, pGlu-Val-Arg-Phe-Arg-Gln-Cys-Tyr-Phe-Asn-Pro-Ile-Ser-Cys-Phe-OH] ([pGlu]VRFRQCYFNPISCF-OH; disulfide 7-14)	–	exhibits allatostatin activity
